Reference: ChEMBL document CHEMBL4602604, “A Selective and Brain Penetrant p38αMAPK Inhibitor Candidate for Neurologic and Neuropsychiatric Disorders That Attenuates Neuroinflammation and Cognitive Dysfunction” (J Med Chem, 2019)
Calls of active or inactive are those of the source. No cut-off for these calls is given here.

Assays:
[1] = human, microsomes, 1 µM
Mus musculus [2] = assay: Suppression of human recombinant tau-induced memory impairment in C57Bl/6 mouse model of oligomeric tau infusion model assessed as attenuation of deficits in spatial and associative memory performance at 5 mg/kg, ip dosed 20 mins prior to start of testing by contextual fear conditioning assay; type: functional, organism-based
[3] = target: Prostaglandin G/H synthase 1 (Homo sapiens, UniProt P23219); assay: Inhibition of human COX1 at 10 uM
[4] = target: Amine oxidase [flavin-containing] B (Homo sapiens, UniProt P27338); assay: Inhibition of human MAOB at 10 uM
[5] = target: Amine oxidase [flavin-containing] A (Rattus norvegicus, UniProt P21396); assay: Inhibition of rat MAOA at 10 uM
[6] = target: D(1A) dopamine receptor (Homo sapiens) (UniProt P21728); assay: Inhibition of human DRD1 receptor at 10 uM
Mus musculus [7] = assay: Suppression of cognitive dysfunction in transgenic rTg4510 mouse model assessed as rescue of freezing deficit at […], po dosed every other day for 45 days by contextual fear conditioning assay; type: functional, organism-based
[8] = target: Vasopressin V1a receptor (Homo sapiens) (UniProt P37288); assay: Inhibition of human V1A receptor at 10 uM
[9] = Permeability in MDCK cells expressing BCRP at 5 uM by LC-MS/MS analysis; type: ADME, cell-based, Canis lupus familiaris; conditions: dog
Rattus norvegicus [10] = organism: Rattus norvegicus; assay: Inhibition of rat sodium sodium channel at 10 uM
Mus musculus [11] = assay: Suppression of cognitive dysfunction in transgenic rTg4510 mouse model assessed as prevention of hippocampal tissue loss at […], po dosed every other day for 45 days; type: functional, organism-based
Cytochrome P450 3A4 [12] = target: T1, Cytochrome P450 3A4 (Homo sapiens, UniProt P08684); assay: Inhibition of human recombinant CYP3A4 at 10 uM incubated for 10 to 30 mins in presence of CYP-specific probe BFC substrate by LC-MS/MS analysis; type: ADME; conditions: recombinant enzyme
Cytochrome P450 2C8 = Cytochrome P450 2C8 (Homo sapiens, UniProt P10632); assay: Inhibition of human recombinant CYP2C8 at 10 uM incubated for 10 to 30 mins in presence of CYP-specific probe DBF substrate by LC-MS/MS analysis; type: ADME; conditions: recombinant enzyme
[13] = Toxicity in APP/PS1 knock-in mouse assessed as induction of abnormalities in liver at 250 mg/kg; type: organism-based; conditions: in vivo
Mus musculus [14] = assay: Suppression of cognitive dysfunction in transgenic rTg4510 mouse model assessed as reduction in errors at […], po dosed every other day for 45 days by radial arm water maze test; type: functional, organism-based
[15] = target: Glutamate NMDA receptor (Rattus norvegicus) (UniProt P35439+Q00959+Q00960+Q00961+Q62645+Q8VHN2+Q9R1M7); assay: Inhibition of rat NMDA receptor at 10 uM; type: protein-complex assay
[16] = target: Muscarinic acetylcholine receptor M3 (Homo sapiens) (UniProt P20309); assay: Inhibition of human muscarinic M3 receptor at 10 uM
[17] = target: Sodium-dependent noradrenaline transporter (Homo sapiens) (UniProt P23975); assay: Inhibition of human norepinephrine transporter at 10 uM
Cytochrome P450 2C9 = Cytochrome P450 2C9 (Homo sapiens, UniProt P11712); assay: Inhibition of human recombinant CYP2C9 at 10 uM incubated for 10 to 30 mins in presence of CYP-specific probe MFC substrate by LC-MS/MS analysis; type: ADME; conditions: recombinant enzyme
Cytochrome P450 3A4 [18] = target: T1, Cytochrome P450 3A4; assay: Inhibition of human recombinant CYP3A4 at 10 uM incubated for 10 to 30 mins in presence of CYP-specific probe BzRes substrate by LC-MS/MS analysis; type: ADME; conditions: recombinant enzyme
[19] = target: Kappa-type opioid receptor (Homo sapiens) (UniProt P41145); assay: Inhibition of human OP2 receptor at 10 uM
[20] = target: Voltage-gated L-type calcium channel (Rattus norvegicus, UniProt P22002+Q02485+P27732); assay: Inhibition of rat L-type calcium channel at 10 uM; type: protein assay
[21] = target: Alpha-1A adrenergic receptor (Homo sapiens) (UniProt P35348); assay: Inhibition of human adrenergic alpha1a receptor at 10 uM
[22] = target: Adenosine receptor A2a (Homo sapiens) (UniProt P29274); assay: Inhibition of human adenosine A2A receptor at 10 uM
[23] = target: Glucocorticoid receptor (Homo sapiens) (UniProt P04150); assay: Inhibition of human glucocorticoid receptor at 10 uM
Cytochrome P450 2B6 = Cytochrome P450 2B6 (Homo sapiens, UniProt P20813); assay: Inhibition of human recombinant CYP2B6 at 10 uM incubated for 10 to 30 mins in presence of CYP-specific probe EFC substrate by LC-MS/MS analysis; type: ADME; conditions: recombinant enzyme
[24] = target: GABA-A receptor; anion channel (Rattus norvegicus) (UniProt O09028+P15431+P18506+P18508+P19969+P20236+P23574+P23576+P28471+P28473+P30191+P62813+P63079+P63138+Q91ZM7+Q9ES14); assay: Inhibition of rat GABAA receptor at 10 uM; type: protein-complex assay
[25] = target: cGMP-inhibited 3',5'-cyclic phosphodiesterase 3A (Homo sapiens, UniProt Q14432); assay: Inhibition of human PDE3A at 10 uM
Mus musculus [26] = assay: Suppression of cognitive dysfunction in transgenic rTg4510 mouse model assessed as prevention of cortical tissue loss at […], po dosed every other day for 45 days; type: functional, organism-based
[27] = target: 5-hydroxytryptamine receptor 2A (Homo sapiens) (UniProt P28223); assay: Inhibition of human 5HT2A receptor at 10 uM
[28] = target: Muscarinic acetylcholine receptor M1 (Homo sapiens) (UniProt P11229); assay: Inhibition of human muscarinic M1 receptor at 10 uM
[29] = target: 5-hydroxytryptamine receptor 3A (Homo sapiens) (UniProt P46098); assay: Inhibition of human 5HT3 receptor at 10 uM
in vivo = conditions: mouse, po
Description: Toxicity in orally dosed wild type mouse dosed daily for 14 days

[30] = target: 5-hydroxytryptamine receptor 2B (Homo sapiens) (UniProt P41595); assay: Inhibition of human 5HT2B receptor at 10 uM
Rattus norvegicus [31] = organism: Rattus norvegicus; assay: Inhibition of rat potassium channel at 10 uM
in vitro [32] = conditions: human, hepatocytes
Description: Half life in human hepatocytes at 1 uM by LC-MS/MS analysis

[33] = target: Prostaglandin G/H synthase 2 (Homo sapiens, UniProt P35354); assay: Inhibition of human COX2 at 10 uM
[34] = target: Cholecystokinin receptor type A (Homo sapiens) (UniProt P32238); assay: Inhibition of human CCK1 receptor at 10 uM
[35] = target: 3',5'-cyclic-AMP phosphodiesterase 4D (Homo sapiens) (UniProt Q08499); assay: Inhibition of human PDE4D2 at 10 uM
[36] = target: Sodium-dependent dopamine transporter (Homo sapiens) (UniProt Q01959); assay: Inhibition of human dopamine transporter at 10 uM
[37] = target: Cannabinoid receptor 1 (Homo sapiens) (UniProt P21554); assay: Inhibition of human CB1 receptor at 10 uM
[38] = target: Histamine H2 receptor (Homo sapiens) (UniProt P25021); assay: Inhibition of human histamine H2 receptor at 10 uM
[39] = Permeability in human Caco2 cells at 5 uM by LC-MS/MS analysis; type: ADME, cell-based; conditions: caco-2, 5 µM
[40] = target: Beta-2 adrenergic receptor (Homo sapiens) (UniProt P07550); assay: Inhibition of human adrenergic beta2 receptor at 10 uM
Cytochrome P450 1A2 = Cytochrome P450 1A2 (Homo sapiens, UniProt P05177); assay: Inhibition of human recombinant CYP1A2 at 10 uM incubated for 10 to 30 mins in presence of CYP-specific probe CEC substrate by LC-MS/MS analysis; type: ADME; conditions: recombinant enzyme
Mus musculus [41] = assay: Effect on memory function in C57Bl/6 mouse at 5 mg/kg, ip dosed 20 mins prior to start of testing by radial arm water maze test; type: ADME, organism-based; conditions: in vivo
[42] = target: 5-hydroxytryptamine receptor 1B (Homo sapiens) (UniProt P28222); assay: Inhibition of human 5HT1B receptor at 10 uM
in vitro [43] = conditions: Beagle, dog, hepatocytes
Description: Half life in Beagle dog hepatocytes at 1 uM by LC-MS/MS analysis

[44] = target: Sodium-dependent serotonin transporter (Homo sapiens) (UniProt P31645); assay: Inhibition of human serotonin transporter at 10 uM
[45] = Toxicity in wild type mouse assessed as induction of abnormalities in liver at 250 mg/kg; type: organism-based; conditions: in vivo
[46] = target: Beta-1 adrenergic receptor (Homo sapiens) (UniProt P08588); assay: Inhibition of human adrenergic beta1 receptor at 10 uM
[47] = target: Mu-type opioid receptor (Homo sapiens) (UniProt P35372); assay: Inhibition of human OP3 receptor at 10 uM
[48] = target: 5-hydroxytryptamine receptor 1A (Homo sapiens) (UniProt P08908); assay: Inhibition of human 5HT1A receptor at 10 uM
[49] = target: Neuronal acetylcholine receptor; alpha4/beta2 (Homo sapiens) (UniProt P17787+P43681); assay: Inhibition of human alpha4beta2 nAChR receptor at 10 uM; type: protein-complex assay
[50] = target: Cannabinoid receptor 2 (Homo sapiens) (UniProt P34972); assay: Inhibition of human CB2 receptor at 10 uM
[51] = target: Alpha-2A adrenergic receptor (Homo sapiens) (UniProt P08913); assay: Inhibition of human adrenergic alpha2a receptor at 10 uM
[52] = target: D(2) dopamine receptor (Homo sapiens) (UniProt P14416); assay: Inhibition of human D2S receptor at 10 uM
Acetylcholinesterase = Acetylcholinesterase (Homo sapiens, UniProt P22303); assay: Inhibition of human acetyl cholinesterase at 10 uM
Mus musculus [53] = assay: Suppression of human recombinant tau-induced memory impairment in C57Bl/6 mouse model of oligomeric tau infusion model assessed as attenuation of deficits in spatial and associative memory performance at 5 mg/kg, ip dosed 20 mins prior to start of testing by radial arm water maze test; type: functional, organism-based
Cytochrome P450 2D6 = Cytochrome P450 2D6 (Homo sapiens, UniProt P10635); assay: Inhibition of human recombinant CYP2D6 at 10 uM incubated for 10 to 30 mins in presence of CYP-specific probe MFC substrate by LC-MS/MS analysis; type: ADME; conditions: recombinant enzyme
[54] = target: Histamine H1 receptor (Homo sapiens) (UniProt P35367); assay: Inhibition of human histamine H1 receptor at 10 uM
[55] = target: Androgen receptor (Homo sapiens) (UniProt P10275); assay: Inhibition of human androgen receptor at 10 uM
Cytochrome P450 2C19 = Cytochrome P450 2C19 (Homo sapiens, UniProt P33261); assay: Inhibition of human recombinant CYP2C19 at 10 uM incubated for 10 to 30 mins in presence of CYP-specific probe CEC substrate by LC-MS/MS analysis; type: ADME; conditions: recombinant enzyme
[56] = target: Delta-type opioid receptor (Homo sapiens) (UniProt P41143); assay: Inhibition of human OP1 receptor at 10 uM

T1 sequence (P08684 whole entry): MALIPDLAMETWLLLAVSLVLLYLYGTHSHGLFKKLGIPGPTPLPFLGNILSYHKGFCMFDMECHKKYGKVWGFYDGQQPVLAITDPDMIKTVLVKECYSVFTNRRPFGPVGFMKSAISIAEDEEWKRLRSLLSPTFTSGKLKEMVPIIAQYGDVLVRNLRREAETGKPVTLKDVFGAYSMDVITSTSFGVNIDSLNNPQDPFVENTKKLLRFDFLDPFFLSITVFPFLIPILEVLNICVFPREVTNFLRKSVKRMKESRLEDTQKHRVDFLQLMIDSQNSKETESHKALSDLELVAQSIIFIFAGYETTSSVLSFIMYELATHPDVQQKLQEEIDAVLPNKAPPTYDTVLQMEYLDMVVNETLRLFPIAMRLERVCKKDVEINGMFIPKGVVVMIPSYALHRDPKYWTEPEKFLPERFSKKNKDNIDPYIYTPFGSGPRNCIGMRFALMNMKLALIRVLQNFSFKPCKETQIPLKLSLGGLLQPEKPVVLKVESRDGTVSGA
Kappa-type opioid receptor (Homo sapiens), sequence (P41145 whole entry): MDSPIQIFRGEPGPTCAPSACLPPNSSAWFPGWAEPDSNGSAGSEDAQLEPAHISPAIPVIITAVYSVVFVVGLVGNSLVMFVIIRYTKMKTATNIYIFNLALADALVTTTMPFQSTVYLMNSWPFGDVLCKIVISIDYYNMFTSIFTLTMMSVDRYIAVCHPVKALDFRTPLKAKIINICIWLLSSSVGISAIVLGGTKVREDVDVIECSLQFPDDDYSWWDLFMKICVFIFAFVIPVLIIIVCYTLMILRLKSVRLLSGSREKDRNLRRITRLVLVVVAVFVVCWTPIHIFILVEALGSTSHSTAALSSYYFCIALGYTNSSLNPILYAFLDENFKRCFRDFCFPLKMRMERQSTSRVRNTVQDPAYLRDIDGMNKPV
cGMP-inhibited 3',5'-cyclic phosphodiesterase 3A, sequence (Q14432 whole entry): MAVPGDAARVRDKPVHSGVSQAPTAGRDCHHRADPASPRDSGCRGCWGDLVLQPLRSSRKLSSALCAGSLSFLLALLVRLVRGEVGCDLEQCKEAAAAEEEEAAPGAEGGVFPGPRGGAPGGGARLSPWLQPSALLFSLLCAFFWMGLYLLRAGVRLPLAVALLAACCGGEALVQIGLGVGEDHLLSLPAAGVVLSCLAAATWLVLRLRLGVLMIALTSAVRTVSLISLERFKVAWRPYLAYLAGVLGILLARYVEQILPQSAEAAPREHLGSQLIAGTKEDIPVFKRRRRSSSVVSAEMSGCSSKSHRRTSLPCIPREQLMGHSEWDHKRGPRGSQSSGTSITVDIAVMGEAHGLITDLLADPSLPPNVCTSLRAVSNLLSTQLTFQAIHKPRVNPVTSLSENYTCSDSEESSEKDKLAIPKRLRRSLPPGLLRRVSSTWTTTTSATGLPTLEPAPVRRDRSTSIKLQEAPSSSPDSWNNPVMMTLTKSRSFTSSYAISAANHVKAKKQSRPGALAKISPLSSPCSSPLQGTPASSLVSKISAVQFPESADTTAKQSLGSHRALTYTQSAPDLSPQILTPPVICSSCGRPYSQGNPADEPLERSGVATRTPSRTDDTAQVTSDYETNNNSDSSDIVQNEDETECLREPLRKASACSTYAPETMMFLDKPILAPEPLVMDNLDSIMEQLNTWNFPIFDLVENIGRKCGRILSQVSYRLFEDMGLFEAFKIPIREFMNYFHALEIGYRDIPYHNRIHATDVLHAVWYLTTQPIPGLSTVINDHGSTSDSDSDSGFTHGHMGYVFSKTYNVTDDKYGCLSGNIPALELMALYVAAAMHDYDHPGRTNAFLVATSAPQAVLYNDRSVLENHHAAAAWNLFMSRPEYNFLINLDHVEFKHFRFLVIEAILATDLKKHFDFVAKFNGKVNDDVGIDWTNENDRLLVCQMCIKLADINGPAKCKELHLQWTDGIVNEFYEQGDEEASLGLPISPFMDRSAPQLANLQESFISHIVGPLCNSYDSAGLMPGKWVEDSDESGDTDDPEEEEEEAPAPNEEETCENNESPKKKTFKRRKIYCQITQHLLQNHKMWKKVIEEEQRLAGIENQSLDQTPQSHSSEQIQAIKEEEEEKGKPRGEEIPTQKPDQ
5-hydroxytryptamine receptor 1A (Homo sapiens), sequence (P08908 whole entry): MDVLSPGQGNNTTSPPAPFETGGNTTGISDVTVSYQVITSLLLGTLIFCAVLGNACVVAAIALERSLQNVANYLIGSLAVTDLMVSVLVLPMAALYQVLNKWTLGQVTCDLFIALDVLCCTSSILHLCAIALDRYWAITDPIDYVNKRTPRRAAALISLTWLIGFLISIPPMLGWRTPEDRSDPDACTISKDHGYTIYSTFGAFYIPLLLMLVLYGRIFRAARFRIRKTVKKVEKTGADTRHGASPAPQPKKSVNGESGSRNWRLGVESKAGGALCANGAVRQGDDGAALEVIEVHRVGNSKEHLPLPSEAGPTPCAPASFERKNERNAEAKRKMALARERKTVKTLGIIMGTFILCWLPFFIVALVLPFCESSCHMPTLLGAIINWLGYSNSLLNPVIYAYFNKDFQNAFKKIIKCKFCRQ
Sodium-dependent dopamine transporter (Homo sapiens), sequence (Q01959 whole entry): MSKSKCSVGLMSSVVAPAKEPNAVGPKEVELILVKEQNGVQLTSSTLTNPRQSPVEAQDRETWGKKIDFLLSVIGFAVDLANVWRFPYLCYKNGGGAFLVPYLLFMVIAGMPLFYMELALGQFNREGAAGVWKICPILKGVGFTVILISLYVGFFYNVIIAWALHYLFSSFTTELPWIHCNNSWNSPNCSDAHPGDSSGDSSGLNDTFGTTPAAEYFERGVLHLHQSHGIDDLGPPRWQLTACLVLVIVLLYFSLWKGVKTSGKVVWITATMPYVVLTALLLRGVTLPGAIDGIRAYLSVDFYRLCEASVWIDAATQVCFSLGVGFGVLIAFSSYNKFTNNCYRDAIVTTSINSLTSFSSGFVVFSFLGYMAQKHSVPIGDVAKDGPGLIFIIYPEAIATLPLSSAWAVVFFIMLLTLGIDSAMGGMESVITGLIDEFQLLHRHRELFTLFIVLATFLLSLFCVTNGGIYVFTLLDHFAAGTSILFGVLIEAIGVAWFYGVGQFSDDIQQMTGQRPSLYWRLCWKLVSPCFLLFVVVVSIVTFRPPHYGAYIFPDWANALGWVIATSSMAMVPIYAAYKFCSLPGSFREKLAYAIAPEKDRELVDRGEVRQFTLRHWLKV
Adenosine receptor A2a (Homo sapiens), sequence (P29274 whole entry, looked up): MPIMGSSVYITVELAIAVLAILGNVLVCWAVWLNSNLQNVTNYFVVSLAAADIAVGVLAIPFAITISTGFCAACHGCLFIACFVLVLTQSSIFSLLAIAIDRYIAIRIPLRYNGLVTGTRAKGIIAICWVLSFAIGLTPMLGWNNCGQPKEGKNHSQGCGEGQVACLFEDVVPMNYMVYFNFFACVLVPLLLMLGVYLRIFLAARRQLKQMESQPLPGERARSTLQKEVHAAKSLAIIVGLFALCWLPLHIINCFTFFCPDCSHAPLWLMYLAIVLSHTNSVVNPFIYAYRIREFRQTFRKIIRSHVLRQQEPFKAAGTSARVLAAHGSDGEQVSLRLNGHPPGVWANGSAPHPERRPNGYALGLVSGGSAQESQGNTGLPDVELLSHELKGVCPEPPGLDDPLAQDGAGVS
5-hydroxytryptamine receptor 2A (Homo sapiens), sequence (P28223 whole entry): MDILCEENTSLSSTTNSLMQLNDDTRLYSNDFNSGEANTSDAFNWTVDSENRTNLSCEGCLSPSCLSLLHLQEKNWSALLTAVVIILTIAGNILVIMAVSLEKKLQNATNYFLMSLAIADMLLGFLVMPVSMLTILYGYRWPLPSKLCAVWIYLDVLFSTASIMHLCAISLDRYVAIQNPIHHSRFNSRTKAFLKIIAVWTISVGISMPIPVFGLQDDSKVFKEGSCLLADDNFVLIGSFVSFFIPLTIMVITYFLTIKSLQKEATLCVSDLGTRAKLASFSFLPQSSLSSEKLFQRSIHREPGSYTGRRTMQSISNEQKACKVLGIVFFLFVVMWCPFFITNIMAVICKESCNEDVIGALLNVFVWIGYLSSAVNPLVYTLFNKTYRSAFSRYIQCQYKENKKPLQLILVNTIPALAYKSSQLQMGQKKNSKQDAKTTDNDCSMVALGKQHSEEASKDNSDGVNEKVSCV
Muscarinic acetylcholine receptor M1 (Homo sapiens), sequence (P11229 whole entry): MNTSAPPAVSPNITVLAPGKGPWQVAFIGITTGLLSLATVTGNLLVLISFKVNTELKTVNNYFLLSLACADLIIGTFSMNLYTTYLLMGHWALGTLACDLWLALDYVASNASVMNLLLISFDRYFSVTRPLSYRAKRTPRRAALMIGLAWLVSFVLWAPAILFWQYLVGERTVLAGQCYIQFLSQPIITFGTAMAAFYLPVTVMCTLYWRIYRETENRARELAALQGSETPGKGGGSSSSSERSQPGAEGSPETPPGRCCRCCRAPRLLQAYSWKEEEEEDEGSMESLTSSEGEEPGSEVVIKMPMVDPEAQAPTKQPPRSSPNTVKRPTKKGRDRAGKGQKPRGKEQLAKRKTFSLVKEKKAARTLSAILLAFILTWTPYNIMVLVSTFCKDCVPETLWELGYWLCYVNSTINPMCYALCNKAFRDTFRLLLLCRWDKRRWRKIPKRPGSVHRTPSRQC
Amine oxidase [flavin-containing] A, sequence (P21396 whole entry): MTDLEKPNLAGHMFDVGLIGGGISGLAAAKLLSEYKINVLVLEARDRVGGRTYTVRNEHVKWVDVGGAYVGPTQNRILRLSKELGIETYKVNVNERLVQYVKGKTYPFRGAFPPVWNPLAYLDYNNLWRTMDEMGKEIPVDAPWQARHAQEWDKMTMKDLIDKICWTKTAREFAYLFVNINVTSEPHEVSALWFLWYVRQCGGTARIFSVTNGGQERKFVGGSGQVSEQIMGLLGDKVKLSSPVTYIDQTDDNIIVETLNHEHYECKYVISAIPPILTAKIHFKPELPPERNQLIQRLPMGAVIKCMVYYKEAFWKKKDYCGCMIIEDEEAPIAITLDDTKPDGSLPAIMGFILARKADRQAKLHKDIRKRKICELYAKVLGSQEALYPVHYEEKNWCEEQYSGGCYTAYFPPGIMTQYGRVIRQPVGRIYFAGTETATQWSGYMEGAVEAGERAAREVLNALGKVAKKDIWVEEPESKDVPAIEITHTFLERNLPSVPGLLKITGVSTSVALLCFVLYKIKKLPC

Work on `c1ccc2cc(-c3nnc(N4CCCCC4)cc3-c3ccncc3)ccc2c1` yielded a t1/2 [1] of 0.1 h.
For `c1ccc2cc(-c3nnc(N4CCNCC4)cc3-c3ccncc3)ccc2c1`, the t1/2 [1] was > 1 h.
With `CN1CCN(c2cc(-c3ccncc3)c(-c3ccc4ccccc4c3)nn2)CC1` [MW-150] the Activity (Mus musculus [2]) was “Active”, the “inhibition (INH)” value [3] was “Not Active” and the “inhibition (INH)” value [4] was “Not Active”. The “inhibition (INH)” value [5] was “Not Active”, the inhibition [6] was “inactive” and the Activity (Mus musculus [7]) was “Active”. For the same compound, the inhibition [8] was “inactive”, the permeability [9] was “Permeable” and the inhibition (Rattus norvegicus [10]) was “inactive”. The Activity (Mus musculus [11]) was “inactive”, the “inhibition (INH)” value (Cytochrome P450 3A4 [12]) was “Not Active” and the “inhibition (INH)” value (Cytochrome P450 2C8) was “Not Active”. For the same compound, the Activity [13] was “Non-Toxic”, the Activity (Mus musculus [14]) was “Active” and the inhibition [15] was “inactive”. The inhibition [16] was “inactive”, the inhibition [17] was “inactive” and the “inhibition (INH)” value (Cytochrome P450 2C9) was “Not Active”. The “inhibition (INH)” value (Cytochrome P450 3A4 [18]) was “Not Active”, the inhibition [19] was “inactive” and the “inhibition (INH)” value [20] was “Not Active”. The inhibition [21] was “inactive”, the inhibition [22] was “inactive” and the inhibition [23] was “inactive”. For the same compound, the “inhibition (INH)” value (Cytochrome P450 2B6) was “Not Active”, the inhibition [24] was “inactive” and the “inhibition (INH)” value [25] was “Not Active”. The Activity (Mus musculus [26]) was “Active”, the inhibition [27] was “inactive” and the inhibition [28] was “inactive”. For the same compound, the inhibition [29] was “inactive”, the NOAEL at 336 h (in vivo) was 125 mg/kg and the inhibition [30] was “inactive”. The inhibition (Rattus norvegicus [31]) was “inactive”, the half-life at 1 µM (in vitro [32]) was > 2 h and the “inhibition (INH)” value [33] was “Not Active”. For the same compound, the inhibition [34] was “inactive”, the inhibition [35] was “inactive” and the inhibition [36] was “inactive”. For the same compound, the inhibition [37] was “inactive”, the inhibition [38] was “inactive” and the permeability [39] was “Permeable”. For the same compound, the inhibition [40] was “inactive”, the “inhibition (INH)” value (Cytochrome P450 1A2) was “Not Active” and the Activity (Mus musculus [41]) was “Non-Toxic”. The inhibition [42] was “inactive”, the half-life at 1 µM (in vitro [43]) was > 2 h and the inhibition [44] was “inactive”. For the same compound, the Activity [45] was “Non-Toxic”, the inhibition [46] was “inactive” and the inhibition [47] was “inactive”. The inhibition [48] was “inactive”, the inhibition [49] was “inactive” and the inhibition [50] was “inactive”. The inhibition [51] was “inactive”, the inhibition [52] was “inactive” and the “inhibition (INH)” value (Acetylcholinesterase) was “Not Active”. For the same compound, the Activity (Mus musculus [53]) was “Active”, the “inhibition (INH)” value (Cytochrome P450 2D6) was “Not Active” and the inhibition [54] was “inactive”. The inhibition [55] was “inactive”, the “inhibition (INH)” value (Cytochrome P450 2C19) was “Not Active” and the inhibition [56] was “inactive”.
